This is an account of results in patent US6680327B2, “Crystalline form VII of cabergoline” (Pharmacia Italia SpA, priority 2000, dated 2004).

One data set deals with prolactine. In words: inhibitory effect with regard prolactine. The following applies: statement in words, no test described.
Data set [1] is described as follows: thermodynamic stability of cabergoline polymorphs. It is filed as physicochemical. The protocol: It can be readily prepared by slurry of form I or mixture of form I and VII in a solvent at a temperature over 30° C. The importance of cabergoline form VII rests primarily (but not exclusively) in thermodynamic stability.
The present invention also provides a process for producing crystalline cabergoline Form VII by subjecting crystals of form I or a mixture of crystals form I and VII to a slurry procedure at a temperature over 30° C. Preferably, the process comprises suspending crystals of form I or a mixture of crystals form I and VII in an organic solvent, such as n-heptane, diethyl ether, or n-hexane, at a temperature of from +30° to +80° C., more preferably about 55° C. The resultant suspension is then stirred at this temperature for about from 24 to 120 hours, more preferably for about 48 hours.

Consider `C=CCN1C[C@H](C(=O)N(CCCN(C)C)C(=O)NCC)C[C@@H]2c3cccc4[nH]cc(c34)C[C@H]21` [Form VII, 1((6-allylergolin-8beta-yl)-carbonyl)-1-(3-dimethylaminopropyl)-3-ethylurea], for which the “inhibitory effect with regard prolactine” value with prolactine is recorded as “significant inhibitory effect”. For the same molecule, in data set [1] (compared with form I), the “stability with respect to form I” value is “greater stability”. Also, in data set [1] (range of temperature between +30° and +80° C.), the “thermodynamic stability of the polymorph” value is on record as “thermodynamically most stable polymorph”.
